Reference: US9777054B2, “Soluble fibrin inhibitory peptides and uses thereof” (ENSION INC., priority 2006, dated 2017)
Entries after “also recorded” stand apart in the source; their conditions may differ. No end group written: not given here.

Experiments:
fibrinogen = target: T1, fibrinogen (Homo sapiens, UniProt P02679); experiment: Thrombin induced clotting of purified fibrinogen; format: biochemical; settings: fibrinogen 0.5 mg/ml, thrombin 0.125 U/ml, peptide 4 mmol/L, room temperature
T1 construct: purchased American Diagnostica Inc., Greenwich, Conn
T1 sequence (P02679 27-437 isoform P02679-2 limits assumed): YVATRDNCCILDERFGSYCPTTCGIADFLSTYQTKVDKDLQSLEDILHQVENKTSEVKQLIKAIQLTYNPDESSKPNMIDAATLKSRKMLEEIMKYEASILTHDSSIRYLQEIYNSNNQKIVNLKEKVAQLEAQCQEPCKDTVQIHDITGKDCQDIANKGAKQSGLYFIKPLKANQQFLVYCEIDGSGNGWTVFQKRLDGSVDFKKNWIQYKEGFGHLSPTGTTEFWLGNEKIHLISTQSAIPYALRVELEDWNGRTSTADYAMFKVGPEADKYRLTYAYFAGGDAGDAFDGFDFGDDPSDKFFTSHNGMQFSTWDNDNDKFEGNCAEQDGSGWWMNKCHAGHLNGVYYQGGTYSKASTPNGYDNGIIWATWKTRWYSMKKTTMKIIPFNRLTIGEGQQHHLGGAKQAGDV
T1 sequence (P02671 20-629 partner limits assumed): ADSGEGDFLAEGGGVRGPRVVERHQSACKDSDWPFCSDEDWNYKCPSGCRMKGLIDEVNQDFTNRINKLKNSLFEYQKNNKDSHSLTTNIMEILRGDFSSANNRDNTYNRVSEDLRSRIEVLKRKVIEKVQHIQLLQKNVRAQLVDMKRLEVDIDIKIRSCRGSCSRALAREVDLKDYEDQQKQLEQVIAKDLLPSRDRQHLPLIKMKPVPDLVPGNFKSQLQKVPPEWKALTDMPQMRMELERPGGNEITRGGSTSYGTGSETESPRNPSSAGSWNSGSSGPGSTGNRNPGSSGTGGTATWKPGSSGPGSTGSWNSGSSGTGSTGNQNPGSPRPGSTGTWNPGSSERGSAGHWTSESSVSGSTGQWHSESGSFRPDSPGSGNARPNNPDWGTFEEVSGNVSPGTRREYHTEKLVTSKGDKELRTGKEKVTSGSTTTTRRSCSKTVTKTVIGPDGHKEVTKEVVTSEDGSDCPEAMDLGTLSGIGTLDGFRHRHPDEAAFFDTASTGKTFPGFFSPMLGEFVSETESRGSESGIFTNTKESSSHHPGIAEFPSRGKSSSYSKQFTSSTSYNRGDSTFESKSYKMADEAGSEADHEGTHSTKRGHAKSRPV
T1 sequence (P02675 31-491 partner): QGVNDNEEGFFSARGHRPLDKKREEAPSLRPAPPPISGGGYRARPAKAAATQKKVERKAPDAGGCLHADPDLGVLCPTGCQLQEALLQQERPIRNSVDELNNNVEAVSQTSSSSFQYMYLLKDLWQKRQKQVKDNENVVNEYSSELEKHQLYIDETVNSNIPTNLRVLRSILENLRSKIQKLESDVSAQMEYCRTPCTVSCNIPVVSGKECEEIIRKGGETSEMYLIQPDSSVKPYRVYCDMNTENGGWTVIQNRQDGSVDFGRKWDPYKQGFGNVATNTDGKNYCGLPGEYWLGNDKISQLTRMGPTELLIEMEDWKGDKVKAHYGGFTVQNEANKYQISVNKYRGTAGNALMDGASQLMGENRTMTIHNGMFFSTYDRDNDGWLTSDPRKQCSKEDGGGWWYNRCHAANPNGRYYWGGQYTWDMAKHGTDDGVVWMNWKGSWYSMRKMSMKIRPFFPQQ
Method: Experiments were performed to determine if the specific fibrin(ogen) adherence inhibitors also affected (1) fibrinogen clotting in the presence of thrombin, or (2) normal coagulation in recalcified plasma.
Thrombin (0.625 μl (stock 100 U/ml) was added to RPMI 1640 medium containing 25 μl (stock 10 mg/ml) […] or in the presence of 4 mmol/L specific peptide or peptide combination in a total volume of 1 ml. The tubes were left at room temperature and clotting was determined by observed gelation of the solution every 30 s, and the approximate clotting time was recorded. An additional control was also tested in which the fibrin polymerization inhibitor GPRP-NH2 was added to fibrinogen in the presence of P1-P4 prior to thrombin addition. The tube was left at room temperature to determine if clotting was observed.

A375 cells = experiment: Monocyte adherence to tumor cells under flow conditions (FCS2 perfusion stage incubator); format: cell-based, human
Method: Human peripheral blood monocytes, isolated by density centrifugation and adherence were labeled with the carbocyanine dye (DiI, C18; Molecular Probes, Eugene, Oreg.). They were passed across adherent soluble fibrin treated or untreated tumor cells at a shear force corresponding to that present in small blood capillaries for 1 h (FIGS. 7A and 7B).
The number of tumor cells and adherent monocytes were counted in the images and leukocyte adherence was expressed as the number of leukocytes per tumor cell.
Lyophilized murine anti-human monoclonal blocking antibodies directed against αLβ2 (clone 25.3) and CD54 (clone 84H10) were obtained from Beckman-Coulter (Miami, Fla.), as were purified immunoglobulin matched isotypic controls (IgG1 (mouse) Clone 679.1Mc7). Blocking monoclonal anti-£\M£]2 (clone ICRF44) was obtained from PharMingen (BD Biosciences, San Jose, Calif.). All antibody inhibition experiments were performed using pre-incubation of target cells with 5 μg antibody/106 cells. Experiments were performed in triplicate wells and the results were expressed as the mean+SD for three separate experiments).
To simulate the fluid shear stresses present in vivo, coverslips containing Calcein AM labeled, adherent A375 were loaded into the FCS2 stage incubator (Bioptechs Inc., Butler, Pa.) and mounted on the stage of a Leica DMIRB inverted fluorescence microscope equipped with a Hamamatsu Color Chilled 3CCD camera (C5810 model) attached to a computer for data acquisition.
The FCS2 incubator is a closed near-laminar flow, temperature-controlled perfusion chamber which facilitates direct observation and scanning of the cells on the coverslip during perfusion with solutions or cell suspensions. It was designed to maintain accurate thermal control and allow high-volume near-laminar flow perfusion. A fluid pathway was formed (Dimensions 0.5 mm×14 mm×25 mm) by separating the microaqueduct slide from the coverslip containing cells with a single silicone gasket with a rectangular bore, generating nearlaminar flow conditions during perfusion. The stage incubator was initially connected to a peristaltic pump on the afferent side using 0.062 inch bore S/P medical grade silicone tubing (Fisher Scientific, Suwanee, Ga.), with a three way in-line tap closed to the incubator inlet. The efferent side was connected to waste. After connection of the electronic temperature control, the coverslips were perfused with RPMI to briefly buffer the cells at 37° C. for fifteen minutes (flow rate of 0.5 ml/min). The inlet was then connected to the tube containing the appropriately treated monocyte suspension (3 mL). The efferent tubing was also connected to the same tube, and Di-I (Gant et al., 1992) labelled monocytes were recirculated across the tumor cells for 1 h, after which, the tubing was set up to the initial configuration and the cells were again washed with RPMI for 10 min to remove unbound monocytes.
Individual still images in five randomly chosen fields of view were captured and stored on the computer. The number of monocytes (red) and tumor cells (green) were counted in each field of view and the mean monocyte/tumor cell ratio was calculated. The wall shear stress was calculated using the momentum balance for a Newtonian fluid. The viscosity of water at 37° C. was used as an approximation of the viscosity of the buffer used (RPMI 1640; 0.007 poise). As described in the following equation, the wall shear stress experienced by the monolayer is equal to: T=3 μQ/2a^2b, where T=wall shear stress, μ=coefficient of viscosity (0.007 Poise), Q=volumetric flow rate (0.0083 cm3/s), a=half channel height (0.025 cm), and b=channel width (1.5 cm). The wall shear rate is given by T/μ. […]

[1] = sFn treated with single peptide, incubated with one cell type (P3 tumor cells / P4 monocytes), other cell type untreated
[2] = one cell type treated with peptide only (P1 tumor cells / P2 monocytes), the other cell type with sFn
[3] = one cell type treated with single peptide then sFn (P1 A375 / P2 monocytes), other cell type with sFn (Bars 4, 5)
[4] = effector and tumor cells both pre-treated with single component of the sFn mixture

**Q.** With “Gly-Pro-Arg-Pro-amide (GPRP-NH2) [reference compound]” as the substance, how does the clotting time (fibrinogen) read?
**A.** > 15 min

**Q.** What about the “effect on monocyte adherence” value (A375 cells; effector and tumor cells both pre-treated with single component of the sFn mixture, listed as GPRP) of the same substance?
**A.** did not significantly inhibit adherence

**Q.** And the “effect on monocyte adherence” value (A375 cells; effector and tumor cells both pre-treated with single component of the sFn mixture, listed as GPRPNH2)?
**A.** no significant (P>0.05 compared to untreated cell adherence) inhibition was observed

**Q.** How did the “inhibition of monocyte adherence” value (A375 cells; sFn pre-treated with P4 and incubated with monocytes, tumor cells incubated with sFn (Bar 7)) turn out when “KFGDPLGYEDVIPEADREG (CHAIN peptide comprising the soluble fibrin protein-binding domain in soluble fibin) [Peptide P4]” was run?
**A.** no inhibition was observed

**Q.** And the “inhibition of monocyte adherence” value (A375 cells; [1])?
**A.** no inhibition was observed

**Q.** How did the “inhibition of monocyte adherence” value (A375 cells; [1]) turn out when “KVILPRGGSVLVTC (CHAIN peptide comprising amino acids 8-21 on the ICAM-1 first immunoglobulin domain) [Peptide P3]” was run?
**A.** little or no inhibition was observed

**Q.** With “NNQKIVNLKEKVAQLEA (CHAIN peptide comprising the cell-binding domain in soluble fibin.) [Peptide P1]” as the substance, how does the “effect on monocyte adherence” value (A375 cells; [2]) read?
**A.** Inhibition was still observed; also recorded: inhibited adherence to a similar level to that of sFn treatment of both cells

**Q.** What about the “inhibition of monocyte adherence” value (A375 cells; [3]) of the same substance?
**A.** inhibition was still observed

**Q.** For “YKSMKKTTMKIIPFNRLTIF (CHAIN peptide comprising the cell-binding domain in soluble fibin.) [Peptide P2]”, which “effect on monocyte adherence” value (A375 cells; [2]) is on record?
**A.** Inhibition was also observed; also recorded: inhibited adherence to a similar level to that of sFn treatment of both cells

**Q.** What about the “inhibition of monocyte adherence” value (A375 cells; [3]) of the same substance?
**A.** inhibition was still observed

**Q.** For fibrinogen [reference compound], which “effect on monocyte adherence” value (A375 cells; [4]) is on record?
**A.** no significant (P>0.05 compared to untreated cell adherence) inhibition was observed; also recorded: did not significantly inhibit adherence

**Q.** thrombin [reference compound] was tested. Which “effect on monocyte adherence” value (A375 cells; [4]) did it give?
**A.** no significant (P>0.05 compared to untreated cell adherence) inhibition was observed; also recorded: did not significantly inhibit adherence
